For one assay, the system named is HBA1 locus in PSCs. Put plainly: RNP/AAV6 gene targeting / gene replacement at HBA1 locus in PSCs. It is filed as cell-based, human. How it is done: (§1) Gene targeting efficiency was measured by droplet digital PCR (ddPCR) and flow cytometry (for GFP) to measure the allelic targeting efficiency (FIG. 2B) and percentage of targeted cells (FIG. 2C) respectively. […] The treatment was carried out for 24 hours post gene targeting and the efficiency was calculated 1 week post gene targeting using ddPCR analysis.
(§2) First, we tested the treatment for editing the sickle cell disease (SCD) and cystic fibrosis (CF) mutations at HBB and CFTR loci respectively using the previously described Cas9 RNP and AAV6 donor reagents in WT PSC^71-73 (FIG. 19a-d).
PSC culture and genome editing. […] For each nucleofection, RNP complex was prepared with 5 μg of Cas9 protein and 2 μg of gRNA and incubated for 15 mins at room temperature. PSCs were dissociated into single cells using Accutase (Innovative Cell Technologies, cat: AT104). […] Resuspended cells were added to one well of a 16-well Nucleocuvette Strip (Lonza) and nucleofection was performed in the 4D nucleofector (Lonza) using the program, CA137. Nucleofected PSCs were plated in mTeSR1 medium supplemented with 10 μM of Y27632 at a density of 100,000 cells per well in 48-well plate, AAV6 vector and DNA-PKcs inhibitors were added to the medium at indicated concentrations. […] From the following day, PSCs were cultured in mTeSR1 without Y27632. Gene targeting efficiency was analyzed at 4-6 days post-editing.
(§3) ddPCR analysis of targeted integration. Gene targeting efficiency for the knock-in of multi-kb sequences was measured through digital droplet PCR (ddPCR) analysis. […] After PCR, the droplets were analyzed using the QX200 Droplet Digital PCR reader (Biorad) and Quantasoft software was used to determine the number of copies of the target and reference DNA in the droplets. The allelic gene targeting efficiency was calculated as the percentage of target DNA copies relative to that of the reference. […]
(§4) ICE analysis for quantification of gene editing. […] Following PCR, the amplicons were detected on agarose gel and purified from the gel using GeneJet Gel Extraction Kit (Thermo Fisher Scientific, cat: K0692). […]

The target in a further assay is T1, ATR (Homo sapiens, UniProt Q13535).
T1 construct: various PI3K family kinases in A549 cells (data adapted from previous study); host or cells: A549 cells
The following applies: A549 cells; cited from earlier work.

For another assay, the system named is HBB locus in PSCs. Put plainly: RNP/AAV6 gene targeting at HBB locus in PSCs. It is filed as cell-based, human. The following applies: UBC-GFP-bGHpA knock-in; 0.5 μM. How it is done:
as §1, §2
PSC culture and genome editing. […] Gene targeting efficiency was analyzed at 4-6 days post-editing.
as §3, §4

The next assay has as its target T2, PI3Kγ (Homo sapiens, UniProt P48736).
T2 construct: various PI3K family kinases in A549 cells (data adapted from previous study); host or cells: A549 cells
The following applies: A549 cells; cited from earlier work.

The target in the next assay is T3, ATM (Homo sapiens, UniProt Q13315).
T3 construct: various PI3K family kinases in A549 cells (data adapted from previous study); host or cells: A549 cells
T3 sequence (Q13315 whole entry): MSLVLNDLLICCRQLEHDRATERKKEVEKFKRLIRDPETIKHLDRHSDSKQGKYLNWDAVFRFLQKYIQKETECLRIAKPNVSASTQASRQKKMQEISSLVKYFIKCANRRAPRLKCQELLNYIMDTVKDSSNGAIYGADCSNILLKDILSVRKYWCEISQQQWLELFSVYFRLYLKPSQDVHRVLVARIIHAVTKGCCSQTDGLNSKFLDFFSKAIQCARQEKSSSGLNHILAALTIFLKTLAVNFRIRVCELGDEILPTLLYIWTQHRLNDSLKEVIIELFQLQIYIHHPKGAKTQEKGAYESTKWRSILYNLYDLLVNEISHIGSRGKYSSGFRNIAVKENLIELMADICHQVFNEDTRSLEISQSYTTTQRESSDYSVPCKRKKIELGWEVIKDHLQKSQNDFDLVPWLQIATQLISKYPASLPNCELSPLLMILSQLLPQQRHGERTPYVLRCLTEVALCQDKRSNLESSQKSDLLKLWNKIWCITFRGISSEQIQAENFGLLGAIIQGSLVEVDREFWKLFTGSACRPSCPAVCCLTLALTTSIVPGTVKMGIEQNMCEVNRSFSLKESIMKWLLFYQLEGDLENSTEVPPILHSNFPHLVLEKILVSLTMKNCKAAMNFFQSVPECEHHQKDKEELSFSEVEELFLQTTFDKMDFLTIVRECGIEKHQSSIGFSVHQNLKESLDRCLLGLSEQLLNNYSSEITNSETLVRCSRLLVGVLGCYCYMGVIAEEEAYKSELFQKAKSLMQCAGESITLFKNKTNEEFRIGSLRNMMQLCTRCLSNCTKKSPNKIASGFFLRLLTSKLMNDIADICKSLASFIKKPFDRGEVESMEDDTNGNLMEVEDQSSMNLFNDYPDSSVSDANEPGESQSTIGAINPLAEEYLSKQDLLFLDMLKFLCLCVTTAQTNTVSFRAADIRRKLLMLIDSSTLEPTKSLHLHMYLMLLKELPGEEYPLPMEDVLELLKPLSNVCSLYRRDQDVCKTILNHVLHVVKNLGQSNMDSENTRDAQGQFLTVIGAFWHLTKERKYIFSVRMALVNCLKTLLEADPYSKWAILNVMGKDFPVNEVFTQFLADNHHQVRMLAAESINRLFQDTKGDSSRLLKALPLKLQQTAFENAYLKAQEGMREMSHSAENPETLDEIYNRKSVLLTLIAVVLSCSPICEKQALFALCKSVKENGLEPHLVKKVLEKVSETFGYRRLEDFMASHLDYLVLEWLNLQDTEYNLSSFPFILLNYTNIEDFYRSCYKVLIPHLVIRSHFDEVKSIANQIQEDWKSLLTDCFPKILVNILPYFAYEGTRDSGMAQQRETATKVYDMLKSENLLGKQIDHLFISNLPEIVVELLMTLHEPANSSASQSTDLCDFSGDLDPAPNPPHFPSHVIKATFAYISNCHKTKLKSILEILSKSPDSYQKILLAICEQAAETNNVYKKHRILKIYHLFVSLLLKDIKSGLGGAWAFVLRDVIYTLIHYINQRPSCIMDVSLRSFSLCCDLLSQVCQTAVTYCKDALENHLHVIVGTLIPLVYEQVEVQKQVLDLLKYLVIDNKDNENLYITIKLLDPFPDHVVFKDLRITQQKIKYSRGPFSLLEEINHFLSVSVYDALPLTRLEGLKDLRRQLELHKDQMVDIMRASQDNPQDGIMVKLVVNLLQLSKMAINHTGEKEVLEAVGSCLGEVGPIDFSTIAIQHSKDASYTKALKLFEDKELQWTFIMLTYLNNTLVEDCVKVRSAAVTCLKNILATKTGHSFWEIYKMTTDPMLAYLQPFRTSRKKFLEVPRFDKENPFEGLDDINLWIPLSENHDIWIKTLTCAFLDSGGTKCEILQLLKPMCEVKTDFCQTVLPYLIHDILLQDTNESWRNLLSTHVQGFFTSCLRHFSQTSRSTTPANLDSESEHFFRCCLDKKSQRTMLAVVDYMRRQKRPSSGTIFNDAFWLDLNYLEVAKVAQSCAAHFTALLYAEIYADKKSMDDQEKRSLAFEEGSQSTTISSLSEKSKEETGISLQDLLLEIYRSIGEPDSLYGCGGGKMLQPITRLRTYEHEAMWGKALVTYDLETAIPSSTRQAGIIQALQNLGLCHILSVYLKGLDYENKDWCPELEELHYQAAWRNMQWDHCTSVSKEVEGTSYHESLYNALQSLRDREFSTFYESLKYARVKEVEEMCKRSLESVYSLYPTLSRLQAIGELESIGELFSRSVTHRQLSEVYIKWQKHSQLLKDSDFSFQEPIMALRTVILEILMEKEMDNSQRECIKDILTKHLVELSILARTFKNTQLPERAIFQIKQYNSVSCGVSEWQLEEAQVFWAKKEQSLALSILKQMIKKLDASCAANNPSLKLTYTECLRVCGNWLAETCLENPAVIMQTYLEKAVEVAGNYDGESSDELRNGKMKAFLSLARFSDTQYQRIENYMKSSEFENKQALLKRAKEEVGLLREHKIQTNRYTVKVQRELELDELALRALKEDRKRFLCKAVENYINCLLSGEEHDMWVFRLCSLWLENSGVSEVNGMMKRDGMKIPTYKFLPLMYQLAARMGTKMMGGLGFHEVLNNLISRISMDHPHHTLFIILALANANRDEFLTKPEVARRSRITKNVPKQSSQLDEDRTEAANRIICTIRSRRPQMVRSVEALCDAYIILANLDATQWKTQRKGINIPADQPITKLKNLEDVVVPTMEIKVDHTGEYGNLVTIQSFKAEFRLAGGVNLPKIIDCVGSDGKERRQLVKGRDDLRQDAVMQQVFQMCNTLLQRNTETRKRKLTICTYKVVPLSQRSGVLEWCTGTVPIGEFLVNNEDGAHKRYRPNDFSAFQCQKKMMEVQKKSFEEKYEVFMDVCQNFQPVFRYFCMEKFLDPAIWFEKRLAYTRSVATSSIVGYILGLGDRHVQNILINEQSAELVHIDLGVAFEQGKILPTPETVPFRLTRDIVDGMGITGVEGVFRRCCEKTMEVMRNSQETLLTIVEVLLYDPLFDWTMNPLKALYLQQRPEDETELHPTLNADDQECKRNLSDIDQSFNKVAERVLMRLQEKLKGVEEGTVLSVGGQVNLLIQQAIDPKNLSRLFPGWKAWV
The following applies: A549 cells; cited from earlier work.

The test system of a further assay is CCR5 locus in PSCs. Description: RNP/AAV6 gene targeting at CCR5 locus, knock-in of UBC-GFP-bGHpA (2.6 kb), PSCs. The format is cell-based, human. The following applies: tested at 1, 0.1 and 0.01 μM. How it is done: as §1
PSC culture and genome editing. […] For each nucleofection, RNP complex was prepared with 5 μg of Cas9 protein and 2 μg of gRNA and incubated for 15 mins at room temperature. PSCs were dissociated into single cells using Accutase (Innovative Cell Technologies, cat: AT104). […] Gene targeting efficiency was analyzed at 4-6 days post-editing.
as §3, §4

The source of these data is patent US20250305004A1, “ENHANCING GENE TARGETING EFFICIENCY IN HUMAN CELLS WITH DNA-PK INHIBITOR TREATMENT” (The Board of Trustees of the Leland Stanford Junior …, priority 2022, published 2025).

T2 sequence (P48736 whole entry): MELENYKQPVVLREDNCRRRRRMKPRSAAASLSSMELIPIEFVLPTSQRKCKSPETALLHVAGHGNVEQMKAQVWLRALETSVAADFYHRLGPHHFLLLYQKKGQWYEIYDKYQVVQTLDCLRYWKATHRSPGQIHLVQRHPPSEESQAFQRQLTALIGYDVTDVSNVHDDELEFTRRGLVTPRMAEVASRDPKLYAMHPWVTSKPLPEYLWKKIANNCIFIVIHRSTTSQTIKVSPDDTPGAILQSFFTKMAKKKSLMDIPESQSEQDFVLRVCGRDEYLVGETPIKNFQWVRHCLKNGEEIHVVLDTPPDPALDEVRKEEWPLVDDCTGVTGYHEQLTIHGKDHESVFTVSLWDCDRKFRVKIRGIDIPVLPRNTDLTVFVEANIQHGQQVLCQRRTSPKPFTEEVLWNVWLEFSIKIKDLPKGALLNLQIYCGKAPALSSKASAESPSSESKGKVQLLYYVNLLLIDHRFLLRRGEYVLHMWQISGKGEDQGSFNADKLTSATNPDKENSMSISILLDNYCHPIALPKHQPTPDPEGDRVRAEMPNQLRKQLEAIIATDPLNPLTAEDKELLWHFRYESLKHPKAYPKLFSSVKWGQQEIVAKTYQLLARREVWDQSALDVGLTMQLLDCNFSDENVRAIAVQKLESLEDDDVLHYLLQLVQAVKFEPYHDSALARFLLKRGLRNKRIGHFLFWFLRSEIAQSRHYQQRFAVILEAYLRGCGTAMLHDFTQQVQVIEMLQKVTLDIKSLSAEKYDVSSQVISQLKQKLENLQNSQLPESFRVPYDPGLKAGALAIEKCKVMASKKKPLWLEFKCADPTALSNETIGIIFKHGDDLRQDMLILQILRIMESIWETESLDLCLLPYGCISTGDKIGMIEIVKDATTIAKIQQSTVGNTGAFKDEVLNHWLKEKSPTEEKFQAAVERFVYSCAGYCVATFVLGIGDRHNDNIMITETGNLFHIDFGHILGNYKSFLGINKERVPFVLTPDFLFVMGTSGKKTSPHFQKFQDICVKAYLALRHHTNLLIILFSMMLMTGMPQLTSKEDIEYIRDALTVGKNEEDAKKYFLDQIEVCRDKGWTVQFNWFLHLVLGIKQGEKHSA

As usually defined, the IC50 is the concentration needed to halve the response being measured. In the case of `COc1ccc([C@@H](O)c2cc(-c3ncnc4cc(N5CCOCC5)ccc34)c(F)cc2Cl)nn1` [M3814], the “effect on gene targeting vs untreated” value in the assay with HBA1 locus in PSCs (0.5 μM) and with HBB locus in PSCs was “less prominent effect” in each case. Moreover, the “concentration at which gene replacement is improved” value with HBA1 locus in PSCs (tested at 2 and 0.5 μM) is reported as “effective only at the higher concentration”. Further, the IC50 at ATR is > 30 µM; at PI3Kγ, 1.59 µM; at ATM, > 30 µM. Further, in the assay with CCR5 locus in PSCs, the “concentration at which gene targeting is enhanced” value is recorded as “effective only at 1 μM”.
